# Measured values reported in patent US8586611B2 (priority 2005, dated 2013).
# Columns and labels:
# Type in all cases: in vivo
# Plasmopara viticola = experiment: Test B: grape downy mildew, spray 24 h after inoculation (disease rating, 100 = 100% disease control); conditions: spray 24 h after inoculation, compounds without asterisk (not 40 or 10 ppm)
# From the text: (§1) The test compounds were first dissolved in acetone in an amount equal to 3% of the final volume and then suspended at the desired concentration (in ppm) in acetone and purified water (50/50 mix by volume) containing 250 ppm of the surfactant Trem® 014 (polyhydric alcohol esters). The resulting test suspensions were then used in tests A-E. Spraying a 200 ppm test suspension to the point of run-off on the test plants was the equivalent of a rate of 500 g/ha.
# Grape seedlings were inoculated with a spore suspension of Plasmopara viticola (the causal agent of grape downy mildew) and incubated in a saturated atmosphere at 20° C. for 24 h. After a short drying period, the test suspension was sprayed to the point of run-off on the grape seedlings and then moved to a growth chamber at 20° C. for 5 days, after which the test units were placed back into a saturated atmosphere at 20° C. for 24 h. Upon removal, disease ratings were made.
# (§2) Results for Tests A-F are given in Table A. In the table, a rating of 100 indicates 100% disease control and a rating of 0 indicates no disease control (relative to the controls). A dash (-) indicates no test results.
# Phytophthora infestans [1] = experiment: whole plant or invertebrate; conditions: tomato late blight; spray the day before inoculation; compounds without asterisk (not 40 or 10 ppm)
# Phytophthora infestans [2] = experiment: whole plant or invertebrate; conditions: tomato late blight; spray 17 h after inoculation; compounds without asterisk (not 40 or 10 ppm)
# [3] = test system: Erysiphe graminis f. sp. tritici; experiment: Test E: wheat powdery mildew, spray the day before inoculation (disease rating, 100 = 100% disease control); conditions: spray the day before inoculation, compounds without asterisk (not 40 or 10 ppm)
# From the text: as §1
# The test suspension was sprayed to the point of run-off on wheat seedlings. The following day the seedlings were inoculated with a spore dust of Erysiphe graminis f. sp. tritici, (the causal agent of wheat powdery mildew) and incubated in a growth chamber at 20° C. for 7 days, after which disease ratings were made.
# as §2
SMILES,"Test B disease rating (100 = 100% disease control, 0 = no disease control) (Plasmopara viticola)","Test C disease rating (100 = 100% disease control, 0 = no disease control) (Phytophthora infestans [1])","Test D disease rating (100 = 100% disease control, 0 = no disease control) (Phytophthora infestans [2])","Test E disease rating (100 = 100% disease control, 0 = no disease control) [3]"
CC(c1cccnc1)N(C)C(=O)c1csc(C2CCN(C(=O)Cc3cccc(C(F)(F)F)c3)CC2)n1 (centres unmarked) [compound 66],2%,54%,42%,0%
C[C@H](c1ccccc1)N(C)C(=O)c1csc(C2CCN(C(=O)Cn3cc(Br)cn3)CC2)n1 [compound 71],34%,74%,0%,0%
Cc1ccn(CC(=O)N2CCC(c3nc(C(=O)N(C)[C@H](C)c4ccccc4)cs3)CC2)n1 [compound 72],1%,91%,66%,0%
Cc1cnn(CC(=O)N2CCC(c3nc(C(=O)N(C)[C@H](C)c4ccccc4)cs3)CC2)c1 [compound 73],2%,75%,9%,0%
CC(c1ccncc1)N(C)C(=O)c1csc(C2CCN(C(=O)Cc3cccc(C(F)(F)F)c3)CC2)n1 (centres unmarked) [compound 76],0%,79%,0%,0%
CCOc1ccccc1CC(=O)N1CCC(c2nc(C(=O)N(C)[C@H](C)c3ccccc3)cs2)CC1 [compound 78],100%,78%,46%,0%
CCOc1cccc(CC(=O)N2CCC(c3nc(C(=O)N(C)[C@H](C)c4ccccc4)cs3)CC2)c1 [compound 79],82%,77%,0%,0%
C[C@H](c1ccccc1)N(C)C(=O)c1csc(C2CCN(C(=O)Cc3cccnc3)CC2)n1 [compound 83],14%,31%,0%,0%
C[C@H](c1ccccc1)N(C)C(=O)c1csc(C2CCN(C(=O)Cc3ccncc3)CC2)n1 [compound 84],41%,44%,0%,0%
CCCCC(c1ccccc1)N(C)C(=O)c1csc(C2CCN(C(=O)Cc3cc(C)ccc3C)CC2)n1 (centres unmarked) [compound 85],99%,99%,9%,32%
C[C@H](c1ccccc1)N(C)C(=O)c1csc(C2CCN(C(=O)Cc3cccs3)CC2)n1 [compound 88],43%,33%,0%,0%
COC(=O)Cc1ccccc1CC(=O)N1CCC(c2nc(C(=O)N(C)[C@H](C)c3ccccc3)cs2)CC1 [compound 90],17%,26%,9%,0%
Cc1nc(CC(=O)N2CCC(c3nc(C(=O)N(C)[C@H](C)c4ccccc4)cs3)CC2)cs1 [compound 91],16%,99%,79%,0%
C[C@H](c1ccccc1)N(C)C(=O)c1csc(C2CCN(C(=O)Cc3cc(C(C)(C)C)no3)CC2)n1 [compound 93],9%,26%,0%,0%
Cc1ccc(C)c(CC(=O)N2CCC(c3nc(C(=O)N(C)C(c4ccccc4)C(C)C)cs3)CC2)c1 (centres unmarked) [compound 96],98%,100%,49%,0%
Cc1ccc(C)c(CC(=O)N2CCC(c3nc(C(=O)N(C)C(CC(C)C)c4ccccc4)cs3)CC2)c1 (centres unmarked) [compound 97],53%,86%,0%,0%
Cc1ccc(C)c(CC(=O)N2CCC(c3nc(C(=O)N(C)C4CCc5ccccc5C4)cs3)CC2)c1 (centres unmarked) [compound 98],0%,84%,0%,0%
Cc1ccc(C)c(CC(=O)N2CCC(c3nc(C(=O)N(C)C4CCCc5ccccc54)cs3)CC2)c1 (centres unmarked) [compound 99],97%,100%,99%,0%
Cc1ccc(C)c(CC(=O)N2CCC(c3nc(C(=O)N(C)C4CCc5ccccc54)cs3)CC2)c1 (centres unmarked) [compound 100],94%,100%,99%,0%
Cc1cc(C)n(CC(=O)N2CCC(c3nc(C(=O)N(C)[C@H](C)c4ccccc4)cs3)CC2)c1 [compound 101],0%,70%,8%,0%
Cc1ccc(C)c(CC(=O)N2CCC(c3nc(C(=O)N(C)[C@H](C)c4ncc(Cl)cc4Cl)cs3)CC2)c1 [compound 111],96%,99%,37%,98%
Cc1ccc(C)c(CC(=O)N2CCC(c3nc(C(=O)N(C)C(C)c4cc(C)sc4C)cs3)CC2)c1 (centres unmarked) [compound 112],93%,100%,99%,95%
Cc1ccc(C)c(CC(=O)N2CCC(c3nc(C(=O)N(C)C(C)c4cc(C)oc4C)cs3)CC2)c1 (centres unmarked) [compound 113],0%,97%,31%,0%
CC[C@H](c1ccccc1)N(C)C(=O)c1csc(C2CCN(C(=O)Cc3cc(C(F)(F)F)ccc3Cl)CC2)n1 [compound 114],99%,100%,99%,0%
CC[C@H](c1ccccc1)N(C)C(=O)c1csc(C2CCN(C(=O)Cc3ccccc3OC)CC2)n1 [compound 115],100%,100%,99%,0%
CC[C@H](c1ccccc1)N(C)C(=O)c1csc(C2CCN(C(=O)Cc3cccc(C)c3)CC2)n1 [compound 116],100%,49%,87%,0%
